According to PMC7615185, “Structural basis for ion selectivity in potassium-selective channelrhodopsins” (Cell, 2023):

Molecular target: T1, HcKCR1 (Hyphochytrium catenoides, UniProt A0ABF7PQA2, A110C)
T1 construct: M1-S265; 7TM rhodopsin domain; Sf9, HA signal/FLAG and eGFP-His10-Rho1D4 tags cleaved by 3C, MSP1E3D1/SoyPC nanodisc; residues 6-260 modelled; homotrimer; eYFP fusion in HEK293 for patch clamp
T1 sequence (A0ABF7PQA2 1-265 A110C): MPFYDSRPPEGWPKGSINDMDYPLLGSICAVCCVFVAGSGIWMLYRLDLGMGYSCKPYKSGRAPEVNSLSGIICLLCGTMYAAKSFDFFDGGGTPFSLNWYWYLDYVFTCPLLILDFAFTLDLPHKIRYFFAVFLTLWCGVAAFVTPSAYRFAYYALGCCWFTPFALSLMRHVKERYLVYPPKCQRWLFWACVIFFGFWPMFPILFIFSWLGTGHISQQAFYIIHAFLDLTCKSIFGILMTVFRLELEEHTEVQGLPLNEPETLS
Assay: cryo-EM structure, retinal isomer by HPLC
Assay type: binding
Conditions: dark state, nanodisc, pH 7.5; covalent Schiff base to K233

Compound: CC1=C(/C=C/C(C)=C/C=C/C(C)=C/C=O)C(C)(C)CCC1 [all-trans-retinal]
- cryo-EM structure, retinal isomer by HPLC: accurate modeling of most residues of both HcKCRs
